Results: patent publication US12473333B2, “Method for increasing ETEC CS6 antigen presentation on cell surface and products obtainable thereof” (Scandinavian Biopharma Holding AB, priority 2011, dated 2025)
Where two headings read alike, the source gives them in different places.

Tested on: CS6 expressing bacteria
Method: These inactivated bacteria were then used for oral immunizations of mice.
The suspensions were incubated for 2 h at 37° C. with shaking at 60 rpm, and then kept at 4° C. for 3 days without agitation. The bacterial suspensions were then centrifuged, washed, and re-suspended in the same volume of PBS and kept at 4° C. until use. In both inactivation methods, 0.1 ml of each suspension was spread onto blood agar and incubated at 37° C. for up to one week to check for lack of growth. Before being used for oral immunization, the level of CS6 on the inactivated bacteria was checked by inhibition ELISA.

**Q.** For `Oc1ccccc1` [phenol], which “killing of the bacteria” value (0.25% phenol) is on record?
**A.** did not result in complete killing of the bacteria

**Q.** What about the “killing of the bacteria” value (0.5% phenol, data not shown) of the same molecule?
**A.** killed the tested bacteria
